The record followed here is US10117871B2, “3-hydroxypyrimidine-2,4-dione-5-carboxamides as potent inhibitors of HIV” (Regents of the University of Minnesota, priority 2015, dated 2018).

Where two headings read alike, the source gives them in different places.

The subject of one data set is CEM-SS cells. Briefly: Compound cytotoxicity (MTS) in the HIV cytoprotection assay. It counts as cell-based. Conditions: for Cell viability %: 10 μM, CEM-SS cells; for CC50: Concentration resulting in 50% cell death. The method, then:
(§1) The antiviral activity of newly synthesized analogues of chemotype 7 was evaluated against HIV-1IIIB in CEM-SS cells using an assay based on viral cytopathic effect (CPE). In this assay, the reduction of CPE was used to indicate the antiviral activity of a compound.
Briefly virus and cells were mixed in the presence of test compound and incubated for 6 days. […] Each assay plate contained cell control wells (cells only), virus control wells (cells plus virus), compound toxicity control wells (cells plus compound only), compound colorimetric control wells (compound only) as well as experimental wells (compound plus cells plus virus). […] Each assay included AZT as a positive control.

In a further data set the test system is HIV-1IIIB. Briefly: HIV-1 cytoprotection (CPE reduction) antiviral assay. It counts as cell-based. The settings on record: for inhibition at 10 µM: read-out: CPE reduction %; for antiviral activity, in words: single concentration 10 μM, CPE assay. On the procedure: as §1
Briefly virus and cells were mixed in the presence of test compound and incubated for 6 days. […] Each assay plate contained cell control wells (cells only), virus control wells (cells plus virus), compound toxicity control wells (cells plus compound only), compound colorimetric control wells (compound only) as well as experimental wells (compound plus cells plus virus). Cytoprotection and compound cytotoxicity were assessed by MTS (CellTiter® 96 Reagent, Promega, Madison Wis.) and the EC50 (concentration inhibiting virus replication by 50%), CC50 (concentration resulting in 50% cell death) and a calculated TI (therapeutic index CC50/EC50) were provided. Each assay included AZT as a positive control.

Another data set has as its target T1, HIV-1 integrase (Human immunodeficiency virus type 1 group M subtype B, UniProt P04585).
T1 construct: HIV integrase was expressed and purified as previously reported; made in house; host or cells: Escherichia coli
Briefly: HIV-1 integrase strand transfer (INST) assay. Format: biochemical. On the procedure:
HIV integrase was expressed and purified as previously reported.^43 Inhibition assays were performed using a modified protocol of a reported method.^43 Briefly, 2.1 μL of compound suspended in DMSO was placed in duplicate into a Black 96 well non-binding plate (coming 3991). Compounds were plated in duplicate to a final concentration of 0.13-100 μM. To each well of the plate 186.9 μL of reaction mixture without DNA substrate was added (10 mM HEPES pH 7.5, 10% glycerol w/v, 10 mM MnCl2, 1 mM DTT, 1 μM integrase). The enzyme was incubated with inhibitor for 10 min at 25° C. after which the reaction was initiated by the addition of 21 μL of 500 nM oligo (5′ biotin […] annealed with […] 3′ Cy5). Reactions were incubated at 37° C. for 30 min and then quenched by the addition of 5.2 μL 500 mM EDTA. Each reaction was moved (200 μL) to a MultiScreen HTS PCR plate (Millipore MSSLBPC10) containing 20 μL streptavidin agarose beads (Life Technologies S951) and incubated with shaking for 30 min. A vacuum manifold was used to remove the reaction mixture and the beads were similarly washed 3 times with wash buffer (0.05% SDS, 1 mM EDTA in PBS). The plates were further washed 3 times with 200 μL 50 mM NaOH to denature DNA not covalently linked to the biotin modification. For each denaturation step the plate was incubated with shaking at 25° C. for 5 min and the NaOH was removed by centrifugation at 1000 g for 1 min. The reaction products were eluted from the beads by the addition of 150 μL formamide. The plate was incubated at 25° C. for 10 min and read directly at 635/675 in a SpectraMax i3 plate reader (Molecular Devices). Expression and purification of the recombinant IN in Escherichia coli were performed as previously reported^39, 44 with addition of 10% glycerol to all buffers. Preparation of oligonucleotide substrates has been described.^45 Integrase reactions were performed in 10 μL with 400 nM of recombinant IN, 20 nM of 5′-end [^32P]-labeled oligonucleotide substrate and inhibitors at various concentrations. Solutions of 10% DMSO without inhibitors were used as controls. Reactions were incubated at 37° C. (60 minutes) in buffer containing 50 mM MOPS, pH 7.2, 7.5 mM MgCl2, and 14.3 mM 2-mercaptoethanol. Reactions were stopped by addition of 10 μL of loading dye (10 mM EDTA, 98% deionized formamide, 0.025% xylene cyanol and 0.025% bromophenol blue). Reactions were then subjected to electrophoresis in 20% polyacrylamide-7 M urea gels. Gels were dried and reaction products were visualized and quantitated with a Typhoon 8600 (GE Healthcare, Little Chalfont, Buckinghamshire, UK). Densitometric analyses were performed using ImageQuant from Molecular Dynamics Inc. The concentrations at which enzyme activity was reduced by 50% (IC50) were determined using “Prism” software (GraphPad Software, San Diego, Calif.) for nonlinear regression to fit dose-response data to logistic curve models.

[1] abbreviates: Human immunodeficiency virus 1, 10 μM, HIV-1IIIB in CEM-SS cells.
Setting [2] is: Human immunodeficiency virus 1, CEM-SS.
[3] abbreviates: Human immunodeficiency virus 1, summary of Table 2, read-out: EC50.

The term IC50 denotes the concentration needed to halve the response being measured. `CNc1[nH]c(=O)n(O)c(=O)c1C(=O)NCc1cccc(Cl)c1F` [Compound 7-xiv, N-(3-Chloro-2-fluorobenzyl)-1-(hydroxy)-1,2,3,6-tetrahydro-4-(methylamino)-2,6-dioxopyrimidine-5-carboxamide] showed a Cell viability % in the data set with CEM-SS cells of 100%. Also, the inhibition at 10 µM in the data set on HIV-1IIIB (setting [1]) came out at 100%. The IC50 at HIV-1 integrase (read-out: INST IC50) was 110 ± 33 nM.

In the case of `CCNc1[nH]c(=O)n(O)c(=O)c1C(=O)NCc1ccc(F)cc1F` [Compound 7-xviii, N-(2,4-Difluorobenzyl)-1-(hydroxy)-4-(ethylamino)-1,2,3,6-tetrahydro-2,6-dioxopyrimidine-5-carboxamide], the Cell viability % with CEM-SS cells came to 87%. For the same compound, the inhibition at 10 µM in the data set with HIV-1IIIB (setting [1]) turned out to be 92%. In addition, the IC50 at HIV-1 integrase (read-out: INST IC50) was 48 ± 7 nM.

Broadly, the CC50 is the concentration at which the toxic effect on the cells reaches its halfway point. The EC50 is the concentration at which the effect is half-maximal. For the compound `CCNc1[nH]c(=O)n(O)c(=O)c1C(=O)NCc1ccc(F)c(F)c1` [Compound 7-xx, N-(3,4-Difluorobenzyl)-1-(hydroxy)-4-(ethylamino)-1,2,3,6-tetrahydro-2,6-dioxopyrimidine-5-carboxamide], the Cell viability % with CEM-SS cells was 100%. In addition, in the data set on CEM-SS cells, the midpoint of cytotoxicity, the CC50, lay at 21 µM. Also, the EC50 was 49 nM with HIV-1IIIB (Human immunodeficiency virus 1) and 15 to 61 nM in the data set with HIV-1IIIB (setting [3]). The inhibition at 10 µM in the data set with HIV-1IIIB (setting [2]) amounted to 100%. Besides, the IC50 is 21 to 77 nM on HIV-1 integrase (read-out: IC50 (ST)) and 77 ± 11 nM on HIV-1 integrase (read-out: INST IC50).

Consider `O=C(NCc1ccc(F)cc1)c1c2n(c(=O)n(O)c1=O)CCCN2` [Compound 17, N-(4-Fluorobenzyl)-7-(hydroxy)-2,3,4,6,7,8-hexahydro-6,8-dioxo-1H-pyrimido[1,6-a]pyrimidine-9-carboxamide], for which the IC50 on HIV-1 integrase (read-out: INST IC50) is 430 ± 130 nM.

In the data set with CEM-SS cells, `CCNc1[nH]c(=O)n(O)c(=O)c1C(=O)NCc1cc(F)ccc1Cl` [Compound 7-xxi, N-(2-Chloro-5-fluorobenzyl)-1-(hydroxy)-4-(ethylamino)-1,2,3,6-tetrahydro-2,6-dioxopyrimidine-5-carboxamide] displayed a Cell viability % of 73%. The inhibition at 10 µM with HIV-1IIIB (setting [1]) came out at 62%. Also, the IC50 at HIV-1 integrase (read-out: INST IC50) was found to be 95 ± 19 nM.

Turning to `CCNc1[nH]c(=O)n(O)c(=O)c1C(=O)NCc1ccccc1` [Compound 7-vi, N-Benzyl-1-(hydroxy)-4-(ethylamino)-1,2,3,6-tetrahydro-2,6-dioxopyrimidine-5-carboxamide], the Cell viability % in the data set with CEM-SS cells is recorded as 100%. Besides, in the data set with CEM-SS cells, the CC50 came out at 23 µM. The 50% effective concentration (EC50) in the data set on HIV-1IIIB (Human immunodeficiency virus 1) was 61 nM; in the data set on HIV-1IIIB (setting [3]) it was 15 to 61 nM. Moreover, the inhibition at 10 µM in the data set on HIV-1IIIB (setting [2]) amounted to 100%. Besides, the values for the IC50 on HIV-1 integrase (read-out: IC50 (ST)) and at HIV-1 integrase (read-out: INST IC50) were 21 to 77 nM and 33 ± 4 nM, respectively.

Take `CCCNc1[nH]c(=O)n(O)c(=O)c1C(=O)NCc1ccccc1` [Compound 7-vii, N-Benzyl-1-(hydroxy)-1,2,3,6-tetrahydro-2,6-dioxo-4-(propylamino)pyrimidine-5-carboxamide]: in the data set with CEM-SS cells, the Cell viability % was found to be 97%. Besides, in the data set on HIV-1IIIB (setting [1]), the inhibition at 10 µM came out at 100%. Further, at HIV-1 integrase (read-out: INST IC50), the IC50 turned out to be 66 ± 16 nM.

With `CC(C)(C)Nc1[nH]c(=O)n(O)c(=O)c1C(=O)NCc1ccccc1` [Compound 7-x, 4-(tert-Butylamino)-N-benzyl-1-(hydroxy)-1,2,3,6-tetrahydro-2,6-dioxopyrimidine-5-carboxamide], the Cell viability % in the data set on CEM-SS cells is 91%. In the data set on HIV-1IIIB (setting [1]), the inhibition at 10 µM was 98%. Besides, the half-inhibitory concentration (IC50) at HIV-1 integrase (read-out: INST IC50) amounted to 81 ± 15 nM.

In the data set with CEM-SS cells, `CCNc1[nH]c(=O)n(O)c(=O)c1C(=O)NCc1ccc(F)cc1` [Compound 7-xvi, N-(4-Fluorobenzyl)-1-(hydroxy)-4-(ethylamino)-1,2,3,6-tetrahydro-2,6-dioxopyrimidine-5-carboxamide] came in with a Cell viability % of 99%. This compound also gave a CC50 in the data set with CEM-SS cells of 19 µM. Also, the results for the EC50 in the data set with HIV-1IIIB (Human immunodeficiency virus 1) and in the data set on HIV-1IIIB (setting [3]) were 33 nM and 15 to 61 nM, respectively. Moreover, in the data set with HIV-1IIIB (setting [2]), the inhibition at 10 µM was determined as 100%. The half-inhibitory concentration (IC50) at HIV-1 integrase (read-out: IC50 (ST)) was 21 to 77 nM; on HIV-1 integrase (read-out: INST IC50), 49 ± 4 nM.

`CCCNc1[nH]c(=O)n(O)c(=O)c1C(=O)NCc1cccc(Cl)c1F` [Compound 7-xxviii, N-(3-Chloro-2-fluorobenzyl)-1-(hydroxy)-1,2,3,6-tetrahydro-2,6-dioxo-4-(propylamino)pyrimidine-5-carboxamide] returned a Cell viability % in the data set with CEM-SS cells of 48%. Further, the inhibition at 10 µM in the data set with HIV-1IIIB (setting [1]) is 33%.

In the data set with CEM-SS cells, `O=C(NCc1ccccc1)c1c(NC2CC2)[nH]c(=O)n(O)c1=O` [Compound 7-ix, N-Benzyl-1-(hydroxy)-4-(cyclopropylamino)-1,2,3,6-tetrahydro-2,6-dioxopyrimidine-5-carboxamide] displayed a Cell viability % of 90%. In addition, the inhibition at 10 µM in the data set on HIV-1IIIB (setting [1]) amounted to 98%. In addition, the IC50 at HIV-1 integrase (read-out: INST IC50) turned out to be 209 ± 77 nM.

`CCNc1[nH]c(=O)n(O)c(=O)c1C(=O)NCCc1ccccc1` [Compound 7-xxvi, 1-(Hydroxy)-4-(ethylamino)-1,2,3,6-tetrahydro-2,6-dioxo-N-phenethylpyrimidine-5-carboxamide] yielded a Cell viability % in the data set on CEM-SS cells of 87%. In the data set with HIV-1IIIB (setting [1]), the inhibition at 10 µM stood at 99%. The “antiviral activity, in words” value in the data set on HIV-1IIIB is reported as “largely retained”. Moreover, the IC50 on HIV-1 integrase (read-out: INST IC50) came to 100 ± 30 nM.

In the data set with CEM-SS cells, `O=C(NCc1ccccc1)c1c(Nc2ccccc2)[nH]c(=O)n(O)c1=O` [Compound 7-i, N-Benzyl-1-(hydroxy)-1,2,3,6-tetrahydro-2,6-dioxo-4-(phenylamino)pyrimidine-5-carboxamide] gave a Cell viability % of 21%. In the data set on HIV-1IIIB (setting [2]), the inhibition at 10 µM worked out at 0%.

For `CCNc1[nH]c(=O)n(O)c(=O)c1C(=O)NCc1ccc(C)c(F)c1` [Compound 7-xxiv, N-(3-Fluoro-4-methylbenzyl)-1-(hydroxy)-4-(ethylamino)-1,2,3,6-tetrahydro-2,6-dioxopyrimidine-5-carboxamide], in the data set with CEM-SS cells, the Cell viability % is listed as 100% and half-maximal cytotoxicity (CC50) was put at 20 µM. Besides, the EC50 in the data set on HIV-1IIIB (Human immunodeficiency virus 1) is 150 nM. Besides, in the data set on HIV-1IIIB (setting [1]), the inhibition at 10 µM was determined as 100%. Further, the IC50 on HIV-1 integrase (read-out: INST IC50) came out at 51 ± 13 nM.

`CCNc1[nH]c(=O)n(O)c(=O)c1C(=O)Nc1ccccc1` [Compound 7-xxv, 1-(Hydroxy)-4-(ethylamino)-1,2,3,6-tetrahydro-2,6-dioxo-N-phenylpyrimidine-5-carboxamide] displayed a Cell viability % in the data set on CEM-SS cells of 27%. Besides, the inhibition at 10 µM in the data set with HIV-1IIIB (setting [1]) turned out to be 11%. Also, the “antiviral activity, in words” value with HIV-1IIIB was “complete loss of activity”. Further, the IC50 at HIV-1 integrase (read-out: INST IC50) was 35000 ± 17000 nM.

As to `O=C(NCc1ccccc1)c1c(O)n(O)c(=O)[nH]c1=O` [Compound 16, N-Benzyl-1,6-dihydroxy-2,4-dioxo-1,2,3,4-tetrahydropyrimidine-5-carboxamide], on HIV-1 integrase (read-out: INST IC50), the IC50 worked out at 37000 ± 21000 nM.

With `O=C(NCc1ccccc1)c1c(Nc2ccc(-c3ccccc3)cc2)[nH]c(=O)n(O)c1=O` [Compound 7-ii, N-Benzyl-1-(hydroxy)-1,2,3,6-tetrahydro-2,6-dioxo-4-(biphenylamino)pyrimidine-5-carboxamide], in the data set on CEM-SS cells, the Cell viability % was determined as 13%. The inhibition at 10 µM in the data set with HIV-1IIIB (setting [2]) was determined as 0%.

Consider `CCNc1[nH]c(=O)n(OCc2ccccc2)c(=O)c1C(=O)N(C)Cc1ccc(F)cc1` [Compound 15, 3-(Benzyloxy)-6-(ethylamino)-N-(4-fluorobenzyl)-N-methyl-2,4-dioxo-1,2,3,4-tetrahydropyrimidine-5-carboxamide], for which, on HIV-1 integrase (read-out: INST IC50), the IC50 stood at 7000 ± 3300 nM.
